{"source": "patent US9493507B2", "about": "“Glutathione-elevating compositions and uses thereof” (Oneday— Biotech And Pharma Ltd., priority 2012, dated 2016)", "tested_on": "murine erythrocytes", "assay": "Effect of DY-65 on GSH, GSSG and GSH:GSSG ratio in murine erythrocytes exposed to hydrogen peroxide", "type": "cell-based, mice", "settings": "DY-65 5 μM", "method": "The in vitro efficacy of peptide DY-65 in suppressing the decrease in the ratio of GSH to GSSG in murine erythrocytes exposed to hydrogen peroxide was tested.\nMurine erythrocytes (“Cells”) were prepared by washing freshly harvested whole blood from mice three times in PBS. Cells were resuspended in DMEM at a concentration of 10^6 per mL. All study conditions were evaluated in triplicate.\nHydrogen peroxide (200 μM) was utilized to induce redox stress in murine erythrocytes (“Cells”). Prior to exposure to hydrogen peroxide, cells were randomly allocated to the following experimental groups:\n1. Sham (no exposure to hydrogen peroxide; no drug) • a. 2.5 h final incubation\n2. Vehicle control (hydrogen peroxide; no drug) • a. 1.0 h final incubation • b. 1.5 h final incubation • c. 2.0 h final incubation • d. 2.5 h final incubation\n3. DY-65 (5 μM)+hydrogen peroxide • a. 1.0 h final incubation • b. 1.5 h final incubation • c. 2.0 h final incubation • d. 2.5 h final incubation\nCells at a concentration of 10^6 per mL were incubated with vehicle DMEM (Groups 1 or 2) or peptide DY-65 (Group 3) for 3 hours at 37° C. Thereafter, cells were washed three times with DMEM and resuspended in vehicle DMEM (Group 1) or hydrogen peroxide in DMEM (Groups 2-3) for 1 hour at 37° C.\nThereafter, cells were washed three times with DMEM and resuspended in DMEM at 37° C., 10^6 per mL, with peptide DY-65 (Group 3) or without peptide DY-65 (Groups 1-2). The duration of final incubation was 1.0, 1.5, 2.0, or 2.5 h. Cells were then pelleted, lysed, and processed for measurement of GSH and GSSG using a Glutathione Assay kit sold by Cayman (Chemical Item Number 703002). Data were expressed as micromoles of GSH or GSSG per 1 million erythrocytes.\nGiven 9 conditions, 3 replicates per condition, and 2 endpoints (GSH and GSSG), a total of 54 wells were incubated.\nData analysis. All values in the figure and text below were expressed as mean±standard deviation (SD) and standard error (SE) of n observations. The results were analyzed by one-way ANOVA followed by Tukey's post-hoc test for multiple comparisons. […]", "note": "Entries after “also recorded” stand apart in the source; their conditions may differ."}
{"substance": "N-acetyl-Cys-Lys-Met-Cys-NH2 (Ac-CKMC-NH2; cysteine pairing not given here) [DY-65]", "values": [{"measurement": "effect on GSH concentration after hydrogen peroxide", "setting": "hydrogen peroxide 200 μM 1 h, 1 h final incubation, FIG. 2C", "value": "completely protective; also recorded: increase GSH"}, {"measurement": "effect on GSSG elevation in response to hydrogen peroxide", "setting": "hydrogen peroxide 200 μM 1 h, final incubation 1.0-2.5 h, FIG. 2D", "value": "uniformly effective in suppressing the elevation of GSSG; also recorded: decrease GSSG"}, {"measurement": "ratio of GSH to GSSG", "setting": "hydrogen peroxide 200 μM, earliest time point, 1 h post exposure, FIG. 2E", "value": "clear benefit"}]}
